Laboratory results as given in ChEMBL document CHEMBL5550222, “Synthesis and Biological Evaluation of Novel Psidium Meroterpenoid Derivatives against Cisplatin-Induced Acute Kidney Injury” (J Med Chem, 2024).
Active and inactive are the calls of the source. No cut-off for these calls is given here.

How the values were obtained:
[1] = Cytotoxicity against human HK-2 cells incubated for 72 hrs by MTT assay; assay type: toxicity, cell-based
HK-2 [2] = assay: Protection against cisplatin-induced nephrotoxicity in human HK-2 cells assessed as cell viability at 1 uM preincubated with compound for 2 hrs followed by cisplatin induction and measured after 72 hrs by MTT assay (reference value: 45.1 +/- 3.2%); assay type: functional; conditions: time 74 hrs, read-out: Activity
HK-2 [3] = assay: Protection against cisplatin-induced nephrotoxicity in human HK-2 cells assessed as cell viability at 5 uM preincubated with compound for 2 hrs followed by cisplatin induction and measured after 72 hrs by MTT assay (reference value: 45.1 +/- 3.2%); assay type: functional; conditions: time 74 hrs, read-out: Activity
HK-2 [4] = assay: Protection against cisplatin-induced nephrotoxicity in human HK-2 cells assessed as cell viability at 10 uM preincubated with compound for 2 hrs followed by cisplatin induction and measured after 72 hrs by MTT assay (reference value: 45.1 +/- 3.2%); assay type: functional; conditions: time 74 hrs, read-out: Activity
HK-2 [5] = assay: Protection against cisplatin-induced nephrotoxicity in human HK-2 cells at 5 to 10 uM preincubated with compound for 2 hrs followed by cisplatin induction and measured after 72 hrs by MTT assay; assay type: functional, cell-based; conditions: dose 5-10 µM, time 74.0 hrs
HK-2 [6] = assay: Protection against cisplatin-induced nephrotoxicity in human HK-2 cells assessed as cell viability at 1 uM preincubated with compound for 2 hrs followed by cisplatin induction and measured after 72 hrs by MTT assay (reference value: 37.37 +/- 1.35%); assay type: functional; conditions: time 74 hrs, read-out: Activity
HK-2 [7] = assay: Protection against cisplatin-induced nephrotoxicity in human HK-2 cells assessed as cell viability at 5 uM preincubated with compound for 2 hrs followed by cisplatin induction and measured after 72 hrs by MTT assay (reference value: 37.37 +/- 1.35%); assay type: functional; conditions: time 74 hrs, read-out: Activity
HK-2 [8] = assay: Protection against cisplatin-induced nephrotoxicity in human HK-2 cells assessed as cell viability at 10 uM preincubated with compound for 2 hrs followed by cisplatin induction and measured after 72 hrs by MTT assay (reference value: 37.37 +/- 1.35%); assay type: functional; conditions: time 74 hrs, read-out: Activity
[9] = molecular target: T1, Tyrosine-protein phosphatase non-receptor type 1 (Homo sapiens, UniProt P18031); assay: Inhibition of PTP1B (unknown origin)
T1 sequence (P18031 whole entry): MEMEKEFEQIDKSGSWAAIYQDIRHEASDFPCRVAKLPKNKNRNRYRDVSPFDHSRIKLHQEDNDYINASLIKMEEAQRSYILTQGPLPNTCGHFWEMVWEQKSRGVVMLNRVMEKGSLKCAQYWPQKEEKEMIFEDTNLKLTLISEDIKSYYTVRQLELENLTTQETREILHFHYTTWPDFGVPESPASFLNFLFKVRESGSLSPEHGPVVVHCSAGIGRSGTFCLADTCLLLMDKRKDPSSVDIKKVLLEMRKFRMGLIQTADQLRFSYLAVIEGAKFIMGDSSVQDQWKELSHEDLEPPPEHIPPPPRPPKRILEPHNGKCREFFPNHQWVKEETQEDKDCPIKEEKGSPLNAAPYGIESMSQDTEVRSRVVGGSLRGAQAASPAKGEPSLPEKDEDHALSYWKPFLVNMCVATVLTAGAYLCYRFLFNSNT

HK-2 [10] = assay: Protection against cisplatin-induced nephrotoxicity in human HK-2 cells preincubated with compound for 2 hrs followed by cisplatin induction and measured after 72 hrs by MTT assay; assay type: functional, cell-based; conditions: dose 1-10 µM, time 74.0 hrs
HK-2 [11] = assay: Protection against cisplatin-induced nephrotoxicity in human HK-2 cells increase in viability at 10 uM preincubated with compound for 2 hrs followed by cisplatin induction and measured after 72 hrs by MTT assay (reference value: 45.1%); assay type: functional; conditions: time 74 hrs
[12] = Antitumor activity against cisplatin-induced mouse Lewis lung carcinoma cell line xenografted C57BL/6J mouse assessed as reduction in tumor mass at 50 mg/kg, po preadministered with compound for 3 days followed by cisplatin addition on day 3 and measured 72 hrs post cisplatin administration; assay type: functional; set-up: scale not given: the % may be the effect or the level left; conditions: time 6 day

SMILES	IC50 at 72 h [1]	viability at 1 µM (HK-2 [6])	viability at 5 µM (HK-2 [7])	viability at 10 µM (HK-2 [8])	also measured
COc1c2c(c(C(=O)O)c(OC)c1C(=O)c1ccccc1)OC1(C)C/C=C/C(C)(C)C/C=C(\C)CCC1C2 (centres undefined)	> 10 µM	–	–	–	viability at 1 µM (HK-2 [2]): 48.2%; viability at 5 µM (HK-2 [3]): 64.4%; viability at 10 µM (HK-2 [4]): 68.2%; Activity (HK-2 [5]): Active
COc1c(CN2CCN(C)CC2)c(OC)c(C(=O)c2ccccc2)c2c1CC1CC/C(C)=C/CC(C)(C)/C=C/CC1(C)O2 (centres undefined)	9.1 µM	–	–	–	viability at 1 µM (HK-2 [2]): 46.3%; viability at 5 µM (HK-2 [3]): 57.9%; viability at 10 µM (HK-2 [4]): 47.8%
COc1c(CO)c2c(c(OC)c1C(=O)c1ccccc1)CC1CC/C(C)=C/CC(C)(C)/C=C/CC1(C)O2 (centres undefined)	> 10 µM	–	–	–	viability at 1 µM (HK-2 [2]): 51.2%; viability at 5 µM (HK-2 [3]): 73.6%; viability at 10 µM (HK-2 [4]): 83.3%; Activity (HK-2 [5]): Active
COc1c(CO)c2c(c(OC)c1C(=O)c1ccccc1)CC(C)C(C)(C)O2 (centres undefined)	> 10 µM	40.1%	45.6%	48.4%	Activity (HK-2 [5]): Active
COc1c2c(c(CN3CCN(C)CC3)c(OC)c1C(=O)c1ccccc1)OC1(C)C/C=C/C(C)(C)C/C=C(\C)CCC1C2 (centres undefined)	9.5 µM	–	–	–	viability at 1 µM (HK-2 [2]): 49.7%; viability at 5 µM (HK-2 [3]): 59.6%; viability at 10 µM (HK-2 [4]): 64.2%; Activity (HK-2 [5]): Active
CC12CCCC1Cc1c(O)c(C=O)c(O)c(C(=O)c3ccccc3)c1O2 (centres undefined)	> 10 µM	41.5%	49.6%	51.7%	Activity (HK-2 [5]): Active
COc1c(CO)c(OC)c(C(=O)c2ccccc2)c2c1CC1CCCC1(C)O2 (centres undefined)	> 10 µM	35%	25.9%	26.5%	–
COc1c2c(c(C(=O)c3ccccc3)c(OC)c1C(=O)O)OC1(C)C/C=C/C(C)(C)C/C=C(\C)CCC1C2 (centres undefined)	> 10 µM	–	–	–	viability at 1 µM (HK-2 [2]): 48.4%; viability at 5 µM (HK-2 [3]): 60.4%; viability at 10 µM (HK-2 [4]): 65%; Activity (HK-2 [5]): Active
COc1c(C=O)c(OC)c(C(=O)c2ccccc2)c2c1CC1C[C@@H]3[C@H](CC1(C)O2)C3(C)C (some centres undefined)	> 10 µM	36.3%	39.8%	39%	–
COc1c2c(c(C(=O)c3ccccc3)c(OC)c1C(=O)O)OC1(C)CCCCC1C2 (centres undefined)	> 10 µM	38.8%	35.9%	25.7%	–
CC1(C)[C@H]2[C@H]3[C@@H](CC[C@]3(C)[C@@H](c3ccccc3)c3c(O)c(C=O)c(O)c(C=O)c3O)[C@](C)(O)CC[C@H]21	–	–	–	–	IC50 [9]: 5 µM
COc1c(C=O)c2c(c(OC)c1C(=O)c1ccccc1)CC1CC/C(C)=C/CC(C)(C)/C=C/CC1(C)O2 (centres undefined)	> 10 µM	–	–	–	viability at 1 µM (HK-2 [2]): 70.4%; viability at 5 µM (HK-2 [3]): 79.2%; viability at 10 µM (HK-2 [4]): 67.9%; Activity (HK-2 [5]): Active
COc1c(CN2CCN(C)CC2)c(OC)c(C(=O)c2ccccc2)c2c1CC(C)C(C)(C)O2 (centres undefined)	> 10 µM	37.2%	39.2%	38.9%	–
COc1c(C=O)c(OC)c(C(=O)c2ccccc2)c2c1CC1CCCC1(C)O2 (centres undefined)	> 10 µM	38.2%	44.9%	49.4%	–
COc1c2c(c(CN3CCN(C)CC3)c(OC)c1C(=O)c1ccccc1)OC(C)(C)C(C)C2 (centres undefined)	> 10 µM	39.7%	33%	38.2%	–
COc1c(CN2CCN(C)CC2)c(OC)c(C(=O)c2ccccc2)c2c1CC1CCCC1(C)O2 (centres undefined)	> 10 µM	38%	37.5%	43.7%	–

SMILES	IC50 at 72 h [1]	viability at 1 µM (HK-2 [6])	viability at 5 µM (HK-2 [7])	viability at 10 µM (HK-2 [8])	also measured
COc1c(C=O)c(OC)c(C(=O)c2ccccc2)c2c1CC1CCCCC1(C)O2 (centres undefined)	> 10 µM	35.3%	34.4%	30.1%	–
COc1c2c(c(C(=O)c3ccccc3)c(OC)c1C(=O)O)OC(C)(C)C(C)C2 (centres undefined)	> 10 µM	33.6%	30.4%	33.4%	–
C/C1=C\CC(C)(C)/C=C/CC2(C)Oc3c(c(O)c(C=O)c(O)c3C(=O)c3ccccc3)CC2CC1 (centres undefined)	> 10 µM	–	–	–	viability at 1 µM (HK-2 [2]): 60.3%; viability at 5 µM (HK-2 [3]): 70.2%; viability at 10 µM (HK-2 [4]): 67.1%
COc1c(CN2CCN(C)CC2)c(OC)c(C(=O)c2ccccc2)c2c1CC1CCCCC1(C)O2 (centres undefined)	> 10 µM	30.4%	24.2%	25.9%	–
C/C1=C\CC(C)(C)/C=C/CC2(C)Oc3c(C=O)c(O)c(C(=O)c4ccccc4)c(O)c3CC2CC1 (centres undefined)	7.72 µM	–	–	–	viability at 1 µM (HK-2 [2]): 61.1%; viability at 5 µM (HK-2 [3]): 66.8%; viability at 10 µM (HK-2 [4]): 42.7%
CC12CCCC1Cc1c(O)c(C(=O)c3ccccc3)c(O)c(C=O)c1O2 (centres undefined)	> 10 µM	37.2%	38.2%	38.6%	–
C=C1CC[C@@H]2[C@H](c3ccccc3)c3c(O)c(C=O)c(O)c(C=O)c3O[C@@]2(C)CC[C@H]2[C@H]1CC2(C)C	–	–	–	–	IC50 [9]: 5 µM
C[C@@H]1CC[C@@H]([C@@H](c2ccccc2)c2c(O)c(C=O)c(O)c(C=O)c2O)[C@]2(C)CC[C@@H](C(C)(C)O)C=C12	–	–	–	–	IC50 [9]: 5 µM
CC12CCCCC1Cc1c(O)c(C=O)c(O)c(C(=O)c3ccccc3)c1O2 (centres undefined)	> 10 µM	33.6%	41.3%	42.5%	–
COc1c(CO)c(OC)c(C(=O)c2ccccc2)c2c1CC(C)C(C)(C)O2 (centres undefined)	> 10 µM	38.3%	31.4%	34.2%	–
COc1c2c(c(C(=O)c3ccccc3)c(OC)c1C(=O)O)OC1(C)CCCC1C2 (centres undefined)	> 10 µM	37.2%	35.2%	31.8%	–
COc1c(C=O)c2c(c(OC)c1C(=O)c1ccccc1)CC(C)C(C)(C)O2 (centres undefined)	> 10 µM	37.5%	43.7%	46.2%	–
COc1c2c(c(C(=O)O)c(OC)c1C(=O)c1ccccc1)OC1(C)C[C@H]3[C@@H](CC1C2)C3(C)C (some centres undefined)	> 10 µM	31.5%	21.6%	25.4%	–
COc1c2c(c(C(=O)O)c(OC)c1C(=O)c1ccccc1)OC1(C)CCCCC1C2 (centres undefined)	> 10 µM	38.2%	30.7%	28%	–
COc1c(CO)c(OC)c(C(=O)c2ccccc2)c2c1CC1CC/C(C)=C/CC(C)(C)/C=C/CC1(C)O2 (centres undefined)	> 10 µM	39.1%	50.5%	61.6%	viability at 1 µM (HK-2 [2]): 45.7%; viability at 5 µM (HK-2 [3]): 80.8%; viability at 10 µM (HK-2 [4]): 95.5%; Activity (HK-2 [5]): Active; Activity (HK-2 [10]): Dose-Dependent Effect; Activity (HK-2 [11]): >90%
NCCCNCCSP(=O)(O)O [AMIFOSTINE]	–	–	–	–	Activity [12]: 28.2%
